These results are taken from patent publication US9732094B2, “Arylquinazolines” (Merck Patent GmbH, priority 2013, dated 2017).

pIC50, pKi: −log10 of the molar value. Like-named read-outs stand apart in the source and are kept apart here. Where only a bound is given, the exact number is not on record here.

Data set [1] deals with DNA-PK phosphorylation at serine 2056 (Homo sapiens (Human), UniProt P78527). Kind of data set: DNA-PK phosphorylation at serine 2056 (cellular), bleomycin-treated HCT116 cells, ELISA. It counts as cell-based. Particulars: cellular; HCT116 cells, 10 μM bleomycin, six hours; read-out: IC50 pDNA-PK. The method in brief:
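Test compounds and bleomycin (10 μM) are added to adherent HCT116 cells for 6 h. Detection uses an HRP-based chemiluminescent ELISA, with phospho-DNA-PK signals standardised to total protein.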

In data set [2] the target is Kv11.1 (hERG) (Homo sapiens (Human), UniProt Q12809). Description: Kv11.1 (hERG) ion channel activity (patch clamp assay), HEK293 cells transfected with hERG gene. As to conditions: patch clamp, HEK293 transfected with hERG gene. A general note: hERG is a cardiac potassium channel; its block is linked to QT prolongation.
Sequence of Kv11.1 (hERG) (Q12809 whole entry): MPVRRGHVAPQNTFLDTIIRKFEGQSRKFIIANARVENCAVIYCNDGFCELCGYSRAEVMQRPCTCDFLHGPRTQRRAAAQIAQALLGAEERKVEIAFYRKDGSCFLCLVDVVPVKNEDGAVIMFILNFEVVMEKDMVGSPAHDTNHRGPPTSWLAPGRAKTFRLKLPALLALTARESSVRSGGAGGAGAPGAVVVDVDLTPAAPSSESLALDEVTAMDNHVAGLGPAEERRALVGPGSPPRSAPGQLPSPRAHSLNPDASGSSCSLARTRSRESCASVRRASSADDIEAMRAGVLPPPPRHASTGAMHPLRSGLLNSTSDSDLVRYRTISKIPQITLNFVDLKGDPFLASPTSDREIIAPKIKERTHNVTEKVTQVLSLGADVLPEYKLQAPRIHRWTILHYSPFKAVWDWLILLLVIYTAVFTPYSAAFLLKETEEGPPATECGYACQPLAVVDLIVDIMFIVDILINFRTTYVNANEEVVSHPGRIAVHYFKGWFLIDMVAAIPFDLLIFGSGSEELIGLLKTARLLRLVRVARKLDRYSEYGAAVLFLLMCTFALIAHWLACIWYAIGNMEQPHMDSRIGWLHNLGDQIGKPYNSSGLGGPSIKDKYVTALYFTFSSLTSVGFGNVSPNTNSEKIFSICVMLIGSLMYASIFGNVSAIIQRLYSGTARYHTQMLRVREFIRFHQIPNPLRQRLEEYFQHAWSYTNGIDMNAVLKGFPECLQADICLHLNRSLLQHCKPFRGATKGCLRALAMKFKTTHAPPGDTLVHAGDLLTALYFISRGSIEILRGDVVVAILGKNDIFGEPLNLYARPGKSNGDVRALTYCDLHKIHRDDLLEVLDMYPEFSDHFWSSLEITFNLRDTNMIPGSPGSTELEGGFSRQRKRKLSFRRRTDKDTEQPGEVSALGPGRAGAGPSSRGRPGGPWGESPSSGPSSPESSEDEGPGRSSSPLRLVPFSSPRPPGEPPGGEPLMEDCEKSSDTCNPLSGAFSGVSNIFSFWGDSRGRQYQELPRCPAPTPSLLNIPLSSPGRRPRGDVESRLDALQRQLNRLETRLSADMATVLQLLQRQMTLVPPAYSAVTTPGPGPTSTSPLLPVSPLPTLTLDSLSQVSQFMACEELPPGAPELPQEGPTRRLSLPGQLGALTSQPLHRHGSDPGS
Procedure: C) Kv11.1 (hERG) Ion Channel Activity (Patch Clamp Assay)
The patch-clamp measurement was carried out at room temperature in whole-cell configuration on human embryonic kidney cells (HEK293) which have been transfected in a stable manner with the hERG gene.
The whole-cell configurations were carried out using an automated patch clamp device (Patchliner™, Nanion Technologies, Munich). […] The glass chip has a hole of defined size to which the cell is transferred into the Gigaseal by application of a reduced pressure and brought into the whole-cell configuration. Buffer, cell suspension and test substances were added to microchannels of the chip using a Teflon-coated pipette. The cells were clamped to a holding potential of −80 mV. For measurement of substance-promoted inhibition of the Kv11.1 channel, the following voltage protocol was applied at 10-second intervals: 51 ms/−80 mV, 500 ms/+40 mV, 500 ms/−40 mV, 200 ms/−80 mV. The leakage current is subtracted by means of the P4 method. The cells were resuspended in extracellular buffer (EC) and applied to the chip. After the cell had been collected, the seal was improved by addition of a seal enhancer buffer. As soon as the whole-cell configuration had been reached, the seal enhancer buffer was washed out and replaced by extracellular buffer. The measurement started in EC for 1.5 min. DMSO (vehicle control, 0.1% of DMSO) was then applied, and the control current was recorded for 3 min. The test substance was subsequently added twice in the same concentration, and the potassium current was measured for 3.5 min in each case.
The reference substance used was the Kv11.1 (hERG) ion channel blocker quinidine. The effects of test substances and quinidine were standardised to the associated vehicle control. The effect on the Kv11.1 (hERG) channel activity was assessed from the potassium current at −40 mV. For the calculation, the current was evaluated for the respective final trace.
During the measurement, an aliquot of the test substance was taken for concentration determination. The sample was measured immediately by HPLC, and the final concentration was determined from a calibration curve.
Data set [3] concerns the target DNA-PK (Homo sapiens (Human), UniProt P78527). Description: DNA-PK assay (biochemical), flashplate 33P-ATP kinase assay. As to conditions: enzymatic; 5 μM ATP. The method in brief: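 Reactions ran in streptavidin-coated flashplates and were halted by 200 mM EDTA, with a further 30 min at room temperature before saline washing.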

Regarding `COc1cnc(C(O)c2ccc(F)c(-c3ncnc4cc(N5CCOCC5)ccc34)c2)cn1` (stereo not drawn) [Example 60, [4-Fluoro-3-(7-morpholin-4-yl-quinazolin-4-yl)phenyl]-(5-methoxypyrazin-2-yl)methanol], the pIC50 in data set [1] was 5.30 to 6.30; in data set [3], 7.52 to 8.15. This molecule also gave a pKi in data set [2] (Ki [Kv1.11 hERG]) of 4.60 to 4.82.
`COc1cnc(C(O)c2ccc(OC)c(-c3ncnc4cc(N5CCOCC5)ccc34)c2)cn1` (stereo not drawn) [Example 61, [4-methoxy-3-(7-morpholin-4-yl-quinazolin-4-yl)phenyl]-(5-methoxypyrazin-2-yl)methanol]: the results for the pIC50 in data set [1] and in data set [3] were 4.52 to 5.00 and below 7.52, respectively. Moreover, in data set [2] (read-out: Ki [Kv1.11 hERG]), the pKi is below 4.60.
With `NC(=O)c1ccc(C(O)c2cc(-c3ncnc4cc(N5CCOCC5)ccc34)c(F)cc2Cl)nn1` (stereo not drawn) [Example 62, 6-{[2-Chloro-4-fluoro-5-(7-morpholin-4-yl-quinazolin-4-yl)phenyl]-hydroxymethyl}-pyridazine-3-carboxylic acid amide], the pIC50 in data set [1] was 5.30 to 6.30; in data set [3], 8.15 to 8.52. Further, the pKi in data set [2] (read-out: Ki [Kv1.11 hERG]) is below 4.60.
For `OC(c1ccc2nccn2n1)c1cc(-c2ncnc3cc(N4CCOCC4)ccc23)c(F)cc1Cl` (stereo not drawn) [Example 63, [2-Chloro-4-fluoro-5-(7-morpholin-4-yl-quinazolin-4-yl)phenyl]-imidazo[1,2-b]pyridazin-6-ylmethanol], the pIC50 in data set [1] was 5.30 to 6.30; in data set [3], above 8.52. Besides, the negative logarithm of the Ki (pKi) in data set [2] (read-out: Ki [Kv1.11 hERG]) is 4.82 to 5.00.
For `OC(c1cc(-c2ncnc3cc(N4CCOCC4)ccc23)c(F)cc1Cl)c1nccnc1Cl` (stereo not drawn) [Example 64, [2-Chloro-4-fluoro-5-(7-morpholin-4-yl-quinazolin-4-yl)phenyl]-(3-chloropyrazin-2-yl)-methanol], the pIC50 in data set [1] is above 6.30; in data set [3], 8.15 to 8.52. Moreover, in data set [2] (Ki [Kv1.11 hERG]), the pKi is 4.82 to 5.00.
With `OC(c1ccc(F)c(-c2ncnc3cc(N4CCOCC4)ccc23)c1)c1cccnn1` (stereo not drawn) [Example 65, [4-Fluoro-3-(7-morpholin-4-yl-quinazolin-4-yl)phenyl]-pyridazin-3-ylmethanol], the pIC50 in data set [1] is 5.30 to 6.30; in data set [3] it was 7.52 to 8.15. Also, the pKi in data set [2] (read-out: Ki [Kv1.11 hERG]) was below 4.60.
With `COc1cnc(C(O)c2ccc(F)c(-c3ncnc4cc(N5CCOCC5)ccc34)c2)nc1` (stereo not drawn) [Example 66, [4-Fluoro-3-(7-morpholin-4-yl-quinazolin-4-yl)phenyl]-(5-methoxypyrimidin-2-yl)methanol], the pIC50 in data set [1] is 4.52 to 5.00; in data set [3], 7.52 to 8.15. Further, the pKi in data set [2] (read-out: Ki [Kv1.11 hERG]) is below 4.60.
The like results for `COc1cnc(C(O)c2ccc(F)c(-c3ncnc4cc(N5CCOCC5)ccc34)c2)nc1` (stereo not drawn) [Example 67, [4-Fluoro-3-(7-morpholin-4-yl-quinazolin-4-yl)phenyl]-(5-methoxypyrimidin-2-yl)methanol] were, in that order, 5.00 to 5.30, 7.52 to 8.15 and below 4.60.
Consider `CN(C)c1ccc(C(O)c2ccc(F)c(-c3ncnc4cc(N5CCOCC5)ccc34)c2)nn1` (stereo not drawn) [Example 68, (6-Dimethylamino-pyridazin-3-yl)-[4-fluoro-3-(7-morpholin-4-yl-quinazolin-4-yl)phenyl]-methanol], for which the negative-log IC50 (pIC50) in data set [1] is 5.00 to 5.30; in data set [3] it was 8.15 to 8.52. Besides, the pKi in data set [2] (read-out: Ki [Kv1.11 hERG]) is below 4.60.
The like results for `COc1cnc(C(O)c2ccc(F)c(-c3ncnc4cc(N5CCOCC5)ccc34)c2)nc1` (stereo not drawn) [Example 69, [4-Fluoro-3-(7-morpholin-4-yl-quinazolin-4-yl)phenyl]-(5-methoxypyrimidin-2-yl)methanol] were, in that order, 5.00 to 5.30, 8.15 to 8.52 and below 4.60.
Regarding `Cc1ccc(C(O)c2ccc(F)c(-c3ncnc4cc(N5CCOCC5)ccc34)c2)nn1` (stereo not drawn) [Example 70, [4-Fluoro-3-(7-morpholin-4-yl-quinazolin-4-yl)phenyl]-(6-methylpyridazin-3-yl)methanol], the pIC50 was 5.30 to 6.30 in data set [1] and 8.15 to 8.52 in data set [3]. In addition, the pKi in data set [2] (read-out: Ki [Kv1.11 hERG]) was below 4.60.
For the molecule `COc1ccc([C@H](O)c2ccc(F)c(-c3ncnc4cc(N5CCOCC5)ccc34)c2)nn1` [Example 71, (R)-[4-Fluoro-3-(7-morpholin-4-yl-quinazolin-4-yl)phenyl]-(6-methoxypyridazin-3-yl)methanol], the pIC50 was 5.30 to 6.30 in data set [1] and above 8.52 in data set [3]. In data set [2] (read-out: Ki [Kv1.11 hERG]), the pKi was below 4.60.
The corresponding values for `COc1ccc([C@@H](O)c2ccc(F)c(-c3ncnc4cc(N5CCOCC5)ccc34)c2)nn1` [Example 72, (S)-[4-Fluoro-3-(7-morpholin-4-yl-quinazolin-4-yl)phenyl]-(6-methoxypyridazin-3-yl)methanol] are 5.30 to 6.30, above 8.52 and below 4.60.
Take `COc1ccc(C(OC)c2ccc(F)c(-c3ncnc4cc(N5CCOCC5)ccc34)c2)nn1` (stereo not drawn) [Example 73, 4-{2-Fluoro-5-[methoxy-(6-methoxy-pyridazin-3-yl)methyl]phenyl}-7-morpholin-4-yl-quinazoline]: the figures for the pIC50 in data set [1] and in data set [3] were 5.30 to 6.30 and 8.15 to 8.52, respectively. The negative-log Ki (pKi) in data set [2] (read-out: Ki [Kv1.11 hERG]) is below 4.60.
Take `COc1ccc(C(O)c2ccc(F)c(-c3ncnc4cc(N5CCOCC5)ccc34)c2)nn1` (stereo not drawn) [Example 74, [4-Fluoro-3-(7-morpholin-4-yl-quinazolin-4-yl)phenyl]-(6-methoxypyridazin-3-yl)methanol]: the figures for the pIC50 in data set [1] and in data set [3] were above 6.30 and above 8.52, respectively. Also, in data set [2] (read-out: Ki [Kv1.11 hERG]), the negative-log Ki (pKi) is below 4.60.
Turning to `O=c1ccc(C(O)c2ccc(F)c(-c3ncnc4cc(N5CCOCC5)ccc34)c2)n[nH]1` (stereo not drawn) [Example 76, 6-{[4-Fluoro-3-(7-morpholin-4-yl-quinazolin-4-yl)phenyl]-hydroxymethyl}-2H-pyridazin-3-one], the pIC50 in data set [1] was 5.30 to 6.30; in data set [3], above 8.52. The pKi in data set [2] (read-out: Ki [Kv1.11 hERG]) is below 4.60.
Turning to `OC(c1ccc(F)c(-c2ncnc3cc(N4CCOCC4)ccc23)c1)c1c(F)cncc1Cl` (stereo not drawn) [Example 77, (3-Chloro-5-fluoro-pyridin-4-yl)-[4-fluoro-3-(7-morpholin-4-yl-quinazolin-4-yl)phenyl]-methanol], the pIC50 is above 6.30 in data set [1] and 8.15 to 8.52 in data set [3]. The molecule also had a pKi in data set [2] (Ki [Kv1.11 hERG]) of 4.82 to 5.00.
For `Cc1nccnc1C(O)c1ccc(F)c(-c2ncnc3cc(N4CCOCC4)ccc23)c1` (stereo not drawn) [Example 78, [4-Fluoro-3-(7-morpholin-4-yl-quinazolin-4-yl)phenyl]-(3-methylpyrazin-2-yl)-methanol], the pIC50 is above 6.30 in data set [1] and 8.15 to 8.52 in data set [3]. This molecule gave a pKi in data set [2] (Ki [Kv1.11 hERG]) of 4.60 to 4.82.
The corresponding values for `CCOc1cnnc(C(O)c2ccc(F)c(-c3ncnc4cc(N5CCOCC5)ccc34)c2)c1` (stereo not drawn) [Example 79, (5-Ethoxypyridazin-3-yl)-[4-fluoro-3-(7-morpholin-4-yl-quinazolin-4-yl)phenyl]-methanol] are 5.00 to 5.30, below 7.52 and 4.60 to 4.82.
For `OC(c1ccc(F)c(-c2ncnc3cc(N4CCOCC4)ccc23)c1)c1ncccc1C(F)(F)F` (stereo not drawn) [Example 80, [4-Fluoro-3-(7-morpholin-4-yl-quinazolin-4-yl)-phenyl]-(3-trifluoro-methylpyridin-2-yl)-methanol], the negative logarithm of the IC50 (pIC50) in data set [1] is 5.30 to 6.30; in data set [3] it was 8.15 to 8.52. In data set [2] (read-out: Ki [Kv1.11 hERG]), the negative logarithm of the Ki (pKi) is below 4.60.
Regarding `OC(c1ccc(F)c(-c2ncnc3cc(N4CCOCC4)ccc23)c1)c1ncccc1OC(F)F` (stereo not drawn) [Example 81, (3-Difluoromethoxy-pyridin-2-yl)-[4-fluoro-3-(7-morpholin-4-yl-quinazolin-4-yl)-phenyl]methanol], the pIC50 in data set [1] was above 6.30; in data set [3] it was above 8.52. In addition, the pKi in data set [2] (read-out: Ki [Kv1.11 hERG]) is below 4.60.
Consider `Cc1nccnc1[C@@H](O)c1ccc(F)c(-c2ncnc3cc(N4CCOCC4)ccc23)c1` [Example 82], for which the pIC50 is 5.30 to 6.30 in data set [1] and 7.52 to 8.15 in data set [3]. The pKi in data set [2] (read-out: Ki [Kv1.11 hERG]) is below 4.60.
The like results for `Cc1nccnc1[C@H](O)c1ccc(F)c(-c2ncnc3cc(N4CCOCC4)ccc23)c1` [Example 83, (R)-[4-Fluoro-3-(7-morpholin-4-yl-quinazolin-4-yl)-phenyl]-(3-methyl-pyrazin-2-yl)methanol] were, in that order, above 6.30, above 8.52 and below 4.60.
With `Cc1nccnc1[C@H](O)c1cc(-c2ncnc3cc(N4CCOCC4)ccc23)c(F)cc1F` [Example 84, [2,4-Difluoro-5-(7-morpholin-4-yl-quinazolin-4-yl)-phenyl]-(3-methyl-pyrazin-2-yl)methanol], the pIC50 in data set [1] was above 6.30; in data set [3], 8.15 to 8.52. In addition, the pKi in data set [2] (human, HEK293 cells stably transfected with the hERG gene, Ki [Kv1.11 hERG]) was 4.60 to 4.82.
For `Cc1nccnc1C(O)c1cc(-c2ncnc3cc(N4CCOCC4)ccc23)c(F)cc1F` (stereo not drawn) [Example 86], the pIC50 is above 6.30 in data set [1] and above 8.52 in data set [3]. Moreover, the pKi in data set [2] (read-out: Ki [Kv1.11 hERG]) is below 4.60.
On to `COc1cncnc1C(O)c1ccc(F)c(-c2ncnc3cc(N4CCOCC4)ccc23)c1` (stereo not drawn) [Example 87, [4-Fluoro-3-(7-morpholin-4-yl-quinazolin-4-yl)-phenyl]-(5-methoxy-pyrimidin-4-yl)-methanol], for which the pIC50 in data set [1] is above 6.30; in data set [3] it was above 8.52. In data set [2] (Ki [Kv1.11 hERG]), this molecule had a pKi of 4.60 to 4.82.
The like results for `Cc1cnc(C)c(C(O)c2cc(-c3ncnc4cc(N5CCOCC5)ccc34)c(F)cc2F)n1` (stereo not drawn) [Example 88] were, in that order, above 6.30, above 8.52 and 4.60 to 4.82.

What is called pIC50 is −log10 of the IC50, conventionally taken in molar units. The term pKi denotes the Ki on a negative log10 scale, so that one unit is a factor of ten.
